In ChEMBL document CHEMBL4619786, “Discovery of Novel Resorcinol Dibenzyl Ethers Targeting the Programmed Cell Death-1/Programmed Cell Death-Ligand 1 Interaction as Potential Anticancer Agents” (J Med Chem, 2020):
Values after ≈ are worked out from the molar mass of the structure shown.

What was measured:
[1] = target: T1, Programmed cell death protein 1/Programmed cell death 1 ligand 1 (Homo sapiens, UniProt Q9NZQ7); test: Inhibition of human C-terminal Ig-Fc-tagged PD1 (Leu25 to Gln167 residues) expressed in HEK293 cells/human C-terminal epitope-His-tagged PDL1 (Phe19 to Arg238 residues) expressed in HEK293 cells protein-protein interaction preincubated for 15 mins with PDL1 followed by PD1 addition and measured after 15 mins by APC-labeled anti-His antibody/Eu-labeled anti-human IgG based HTRF assay; assay type: cell-based
[2] = target: T1, Programmed cell death protein 1/Programmed cell death 1 ligand 1; test: Inhibition of human PD1/PDL1 protein-protein interaction by HTRF assay; assay type: protein-complex assay
[3] = tested on: A549; test: Cytotoxicity against human A549 cells assessed as reduction in cell viability measured after 48 hrs by MTT assay; assay type: functional, cell-based; settings: A549, 48 h
[4] = tested on: B16-F10; test: Cytotoxicity against mouse B16/F10 cells assessed as reduction in cell viability measured after 48 hrs by MTT assay; assay type: functional, cell-based; settings: B16-F10, 48 h
[5] = tested on: MCF7; test: Cytotoxicity against human MCF7 cells assessed as reduction in cell viability measured after 48 hrs by MTT assay; assay type: functional, cell-based; settings: MCF7, 48 h
[6] = target: T1, Programmed cell death protein 1/Programmed cell death 1 ligand 1; test: Inhibition of human Fc-tagged PD1 N-terminal domain (Leu25 to Gln167 residues) expressed in HEK293 cells/human His-tagged PDL1 (Phe19 to Arg238 residues) expressed in HEK293 cells protein-protein interaction after 40 mins by APC-labeled anti-His antibody/Eu-labeled anti-human IgG based HTRF assay; assay type: cell-based
[7] = Solubility of the compound in water; assay type: physicochemical

T1 sequence (Q15116 whole entry): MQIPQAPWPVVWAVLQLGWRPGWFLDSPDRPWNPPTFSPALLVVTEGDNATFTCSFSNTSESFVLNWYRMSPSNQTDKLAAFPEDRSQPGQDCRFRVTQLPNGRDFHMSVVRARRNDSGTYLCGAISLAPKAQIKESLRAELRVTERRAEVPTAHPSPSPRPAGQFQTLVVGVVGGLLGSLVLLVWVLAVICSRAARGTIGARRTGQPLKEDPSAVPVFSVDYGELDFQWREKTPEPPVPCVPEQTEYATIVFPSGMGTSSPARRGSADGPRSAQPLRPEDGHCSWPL
T1 sequence (Q9NZQ7 whole entry): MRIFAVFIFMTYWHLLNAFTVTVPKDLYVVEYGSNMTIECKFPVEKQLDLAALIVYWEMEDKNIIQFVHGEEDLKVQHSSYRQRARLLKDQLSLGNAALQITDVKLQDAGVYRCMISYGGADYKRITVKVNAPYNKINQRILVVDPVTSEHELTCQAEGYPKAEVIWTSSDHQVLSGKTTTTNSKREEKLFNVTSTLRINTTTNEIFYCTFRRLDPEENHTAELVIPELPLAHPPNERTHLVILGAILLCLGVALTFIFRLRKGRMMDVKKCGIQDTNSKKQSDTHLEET

| SMILES | IC50 [1] [nM] | IC50 [2] [nM] | IC50 [3] [nM] | IC50 [4] [nM] | IC50 [5] [nM] | IC50 [6] [nM] | also measured |
| --- | --- | --- | --- | --- | --- | --- | --- |
| Cc1c(COc2cc(OCc3ccnc(C#N)c3)c(CNC(C)(C)C(=O)O)cc2Cl)cccc1-c1ccc2ocnc2c1 | 10 |  |  |  |  |  |  |
| Cc1c(COc2cc(OCc3cccc(C#N)c3)c(CNC(C)(C)C(=O)O)cc2Cl)cccc1-c1ccncc1 | > 100 | > 100 |  |  |  |  |  |
| Cc1c(COc2cc(OCc3cccc(C#N)c3)c(CN[C@H](CO)C(=O)O)cc2Cl)cccc1-c1ccccc1 |  | 8 | > 10000 | > 10000 | > 10000 |  |  |
| Cc1c(Nc2cccc3cc(CNCCO)cnc23)cccc1-c1ccccc1 |  |  |  |  |  | < 10 |  |
| Cc1c(COc2ccc3cc(CNCCO)ccc3c2)cccc1-c1ccccc1 |  | > 10000 |  |  |  | > 10000 |  |
| Cc1c(COc2cc(OCc3cccc(C#N)c3)c(CN3CC[C@H](C(=O)O)C3)cc2Cl)cccc1-c1ccc2c(c1)OCCO2 | 7.9 | 7.9 | > 10000 | 10800 | > 10000 |  |  |
| COc1cc(NC(=O)c2cccc(-c3ccccc3)c2C)ccc1CN1CCN(C(C)=O)CC1 |  |  |  |  |  | > 10000 |  |
| Cc1c(COc2cc(OCc3cccc(C#N)c3)c(CN3C[C@@H](O)C[C@@H]3CO)cc2Cl)cccc1-c1ccc2c(c1)OCCO2 |  | 11.1 | 4600 | 2400 | 6600 |  |  |
| O=C(NC(Cc1cc(=O)[nH]c2ccccc12)C(=O)O)c1ccc(Cl)cc1 (stereo unspecified) [REBAMIPIDE] |  |  |  |  |  |  | solubility [7]: 7.6 µg/mL (≈ 20.5 µM) |
